Test results published in patent US9273057B2 (Bristol-Myers Squibb Company, priority 2012, dated 2016).
Counter-ions that a name gives are not always drawn.

The compounds below were run against CK2A1 (CK2α/β) (Homo sapiens, UniProt P68400) (assay: CK2 kinase assay, CK2A1 (CK2α/β)). Conditions: Table A; read-out: CK2A1 (CK2α/β) (IC50).
Type: biochemical

Sequence of CK2A1 (CK2α/β) (P68400 whole entry, species assumed): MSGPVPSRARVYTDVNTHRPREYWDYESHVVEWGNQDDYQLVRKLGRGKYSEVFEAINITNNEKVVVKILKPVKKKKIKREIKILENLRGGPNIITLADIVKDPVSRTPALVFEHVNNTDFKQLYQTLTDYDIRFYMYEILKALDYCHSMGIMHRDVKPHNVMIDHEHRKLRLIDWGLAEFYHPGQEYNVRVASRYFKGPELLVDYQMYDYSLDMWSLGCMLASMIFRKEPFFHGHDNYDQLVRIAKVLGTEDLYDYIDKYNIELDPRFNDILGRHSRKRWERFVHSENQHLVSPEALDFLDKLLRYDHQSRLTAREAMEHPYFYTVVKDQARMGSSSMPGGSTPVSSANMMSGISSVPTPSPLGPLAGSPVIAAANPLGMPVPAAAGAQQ
Sequence of CK2A1 (CK2α/β) (P67870 whole entry partner, species assumed): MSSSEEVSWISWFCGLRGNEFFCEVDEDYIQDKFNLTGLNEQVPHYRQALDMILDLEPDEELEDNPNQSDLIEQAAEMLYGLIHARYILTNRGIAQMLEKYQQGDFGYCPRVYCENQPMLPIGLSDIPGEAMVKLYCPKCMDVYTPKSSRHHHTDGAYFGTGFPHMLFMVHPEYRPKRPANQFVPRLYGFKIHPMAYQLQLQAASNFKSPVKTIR

IC50	SMILES
3.67 nM	N#Cc1cc(Nc2nc(NC3CC3)c3ncc(C#N)n3n2)c(Cl)c(N2CCN(C3CN(C(=O)[C@@H]4C[C@H](F)CN4)C3)CC2)c1 [Example 503, 2-{[2-chloro-5-cyano-3-(4-{1-[(2S,4S)-4-fluoropyrrolidine-2-carbonyl]azetidin-3-yl}piperazin-1-yl)phenyl]amino}-4-(cyclopropylamino)imidazo[2,1-f][1,2,4]triazine-7-carbonitrile]
1.33 nM	C[C@H]1CC(CN2CCN(c3cc(C#N)cc(Nc4nc(NC5CC5)c5ncc(C#N)n5n4)c3Cl)CC2)O1 (stereo partly drawn) [Example 529, 2-((2-chloro-5-cyano-3-(4-(((4S)-4-methyloxetan-2-yl)methyl)piperazin-1-yl)phenyl)amino)-4-(cyclopropylamino)imidazo[2,1-f][1,2,4]triazine-7-carbonitrile]
0.83 nM	CCNc1nc(Nc2cc(C#N)cc(N3CCN(C4CCOC4)CC3)c2Cl)nn2c(C#N)cnc12 (racemic) [Example 103, (+/−) 2-((2-chloro-5-cyano-3-(4-(tetrahydro-3-furanyl)-1-piperazinyl)phenyl)amino)-4-(ethylamino)imidazo [2,1-f][1,2,4]triazine-7-carbonitrile]
0.54 nM	N#Cc1cc(CN2CCOCC2)c(Cl)c(Nc2nc(NC3CC3)c3ncc(C#N)n3n2)c1 [Example 404, 2-((2-chloro-5-cyano-3-(morpholinomethyl)phenyl)amino)-4-(cyclopropylamino)imidazo[2,1-f][1,2,4]triazine-7-carbonitrile]
1.04 nM	N#Cc1cc(Nc2nc(NC3CC3)c3ncc(C#N)n3n2)c(Cl)c(N2CC[C@H]3[C@H](CCN3C3CS(=O)(=O)CC3O)C2)c1 (stereo in doubt) [Example 453, 2-((2-chloro-5-cyano-3-(1-((3S,4S)-4-hydroxy-1,1-dioxidotetrahydrothiophen-3-yl)hexahydro-1H-pyrrolo[3,2-c]pyridin-5(6H)-yl)phenyl)amino)-4-(cyclopropylamino)imidazo[2,1-f][1,2,4]triazine-7-carbonitrile]
0.64 nM	N#Cc1cc(Nc2nc(NC3CC3)c3ncc(C#N)n3n2)c(Cl)c(N2C[C@@H]3CCCN[C@@H]3C2)c1 (racemic) [Example 777, (+/−)-2-((2-chloro-5-cyano-3-((4aS,7aS)-hexahydro-1H-pyrrolo[3,4-b]pyridin-6(2H)-yl)phenyl)amino)-4-(cyclopropylamino)imidazo[2,1-f][1,2,4]triazine-7-carbonitrile]
0.99 nM	CCNc1nc(Nc2cc(C#N)cc(N3CCN(CC(C)(CO)CO)CC3)c2Cl)nn2c(C#N)cnc12 [Example 604, 2-[(2-chloro-5-cyano-3-{4-[3-hydroxy-2-(hydroxymethyl)-2-methylpropyl]piperazin-1-yl}phenyl)amino]-4-(ethylamino)imidazo[2,1-f][1,2,4]triazine-7-carbonitrile]
0.8 nM	CCNc1nc(Nc2cc(C#N)cc(N3CC[C@@H](NC(=O)OC)[C@H](OCOP(=O)(O)O)C3)c2Cl)nn2c(C#N)cnc12 [Example 345, sodium (((3R,4R)-1-(2-chloro-5-cyano-3-((7-cyano-4-(ethylamino)imidazo[2,1-f][1,2,4]triazin-2-yl)amino)phenyl)-4-((methoxycarbonyl)amino)piperidin-3-yl)oxy)methyl phosphate]
1.35 nM	COCCN(C)CC1CN(c2cc(C#N)cc(Nc3nc(NC4CC4)c4ncc(C#N)n4n3)c2Cl)CCN1C (centres unmarked) [Example 707, 2-{[2-chloro-5-cyano-3-(3-{[(2-methoxyethyl)(methyl)amino]methyl}-4-methylpiperazin-1-yl)phenyl]amino}-4-(cyclopropylamino)imidazo[2,1-f][1,2,4]triazine-7-carbonitrile]
0.83 nM	N#Cc1cc(Nc2nc(NC3CC3)c3ncc(C#N)n3n2)c(Cl)c(C2(O)CCN(C3COC3)C2)c1 (centres unmarked) [Example 652, 2-((2-chloro-5-cyano-3-(3-hydroxy-1-(oxetan-3-yl)pyrrolidin-3-yl)phenyl)amino)-4-(cyclopropylamino)imidazo[2,1-f][1,2,4]triazine-7-carbonitrile]
3.28 nM	COC1CN(CC(=O)N2CCN(c3cc(C#N)cc(Nc4nc(NC5CC5)c5ncc(C#N)n5n4)c3Cl)CC2)C1 [Example 585, 2-[(2-chloro-5-cyano-3-{4-[2-(3-methoxyazetidin-1-yl)acetyl]piperazin-1-yl}phenyl)amino]-4-(cyclopropylamino)imidazo [2,1-f][1,2,4]triazine-7-carbonitrile]
0.54 nM	CC(C)(O)C1CN(c2cc(C#N)cc(Nc3nc(NC4CC4)c4ncc(C#N)n4n3)c2Cl)CCO1 (racemic) [Example 33, (+/−) 2-((2-chloro-5-cyano-3-(2-(1-hydroxy-1-methylethyl)-4-morpholinyl)phenyl)amino)-4-(cyclopropylamino)imidazo [2,1-f][1,2,4]triazine-7-carbonitrile]
0.52 nM	CCNc1nc(Nc2cc(C#N)cc(C3CCN(C(C)=O)CC3)c2Cl)nn2c(C#N)cnc12 [Example 354, 2-((3-(1-acetyl-4-piperidinyl)-2-chloro-5-cyanophenyl)amino)-4-(ethylamino)imidazo[2,1-f] [1,2,4]triazine-7-carbonitrile]
1.69 nM	N#Cc1cc(Nc2nc(NC3CC3)c3ncc(C#N)n3n2)c(Cl)c(N2CCC3(CC2)CN(CC(O)CF)C3)c1 (racemic) [Example 796, (+/−)-2-((2-chloro-5-cyano-3-(2-(3-fluoro-2-hydroxypropyl)-2,7-diazaspiro[3.5]nonan-7-yl)phenyl)amino)-4-(cyclopropylamino)imidazo[2,1-f][1,2,4]triazine-7-carbonitrile]
0.73 nM	N#Cc1cc(Nc2nc(NC3CC3)c3ncc(C#N)n3n2)c(Cl)c(N2CCN3CC[C@H](O)[C@H]3C2)c1 (racemic) [Example 438, (+/−)-2-((2-chloro-5-cyano-3-((8R,8aS)-8-hydroxyhexahydropyrrolo[1,2-a]pyrazin-2(1H)-yl)phenyl)amino)-4-(cyclopropylamino)imidazo[2,1-f][1,2,4]triazine-7-carbonitrile]
0.47 nM	C[C@H](N)C(=O)N1CCC(c2cc(C#N)cc(Nc3nc(NC4CC4)c4ncc(C#N)n4n3)c2Cl)CC1 [Example 240, 2-((3-(1-L-alanyl-4-piperidinyl)-2-chloro-5-cyanophenyl)amino)-4-(cyclopropylamino)imidazo[2,1-f][1,2,4]triazine-7-carbonitrile]
1.09 nM	CC(=O)N1CC(N2CCC(O)(c3cc(C#N)cc(Nc4nc(NC5CC5)c5ncc(C#N)n5n4)c3Cl)CC2)C1 [Example 650, 2-((3-(1-(1-acetylazetidin-3-yl)-4-hydroxypiperidin-4-yl)-2-chloro-5-cyanophenyl)amino)-4-(cyclopropylamino)imidazo[2,1-f][1,2,4]triazine-7-carbonitrile]
4.86 nM	CN(C)C(=O)C1CN(c2cc(C#N)cc(Nc3nc(NC4CC4)c4ncc(C#N)n4n3)c2Cl)CCN1C1COC1 (centres unmarked) [Example 564, 4-(2-chloro-5-cyano-3-((7-cyano-4-(cyclopropylamino)imidazo[2,1-f][1,2,4]triazin-2-yl)amino)phenyl)-N,N-dimethyl-1-(oxetan-3-yl)piperazine-2-carboxamide]
2.51 nM	COC(=O)Nc1cc(Nc2nc(NC3CC3)c3ncc(C#N)n3n2)c(Cl)c(N2CCN(C)CC2)c1 [Example 200, methyl (4-chloro-3-((7-cyano-4-(cyclopropylamino)imidazo[2,1-f][1,2,4]triazin-2-yl)amino)-5-(4-methylpiperazin-1-yl)phenyl)carbamate]
2.22 nM	CC(O)CN1CCN(c2cc(C(F)F)cc(Nc3nc(NC4CC4)c4ncc(C#N)n4n3)c2Cl)CC1 (racemic) [Example 249, (+/−) 2-((2-chloro-5-(difluoromethyl)-3-(4-(2-hydroxypropyl)-1-piperazinyl)phenyl)amino)-4-(cyclopropylamino)imidazo[2,1-f][1,2,4]triazine-7-carbonitrile]
1.74 nM	CCNc1nc(Nc2cc(C#N)cc(N3CC[C@@H](NC(=O)OC)[C@H](OC(=O)[C@@H](NC(=O)[C@@H](N)CCCCN)C(C)C)C3)c2Cl)nn2c(C#N)cnc12 [Example 822, (S)-(3R,4R)-1-(2-chloro-5-cyano-3-((7-cyano-4-(ethylamino)imidazo[2,1-f][1,2,4]triazin-2-yl)amino)phenyl)-4-((methoxycarbonyl)amino)piperidin-3-yl 2-((S)-2,6-diaminohexanamido)-3-methylbutanoate dihydrochloride]
2.64 nM	CCNC(=O)NCC1CN(c2cc(C#N)cc(Nc3nc(NC4CC4)c4ncc(C#N)n4n3)c2Cl)CCO1 (centres unmarked) [Example 711, 1-{[4-(2-chloro-5-cyano-3-{[7-cyano-4-(cyclopropylamino)imidazo[2,1-f][1,2,4]triazin-2-yl]amino}phenyl)morpholin-2-yl]methyl}-3-ethylurea]
1.17 nM	N#Cc1cc(Nc2nc(NC3CC3)c3ncc(C#N)n3n2)c(Cl)c(N2CCC(N3CC(F)(F)C3)CC2)c1 [Example 147, 2-((2-chloro-5-cyano-3-(4-(3,3-difluoro-1-azetidinyl)-1-piperidinyl)phenyl)amino)-4-(cyclopropylamino)imidazo [2,1-f][1,2,4]triazine-7-carbonitrile]
1.25 nM	N#Cc1cc(Nc2nc(NC3CC3)c3ncc(C#N)n3n2)c(Cl)c(N2CCC3CCNC3C2)c1 (racemic) [Example 454, (+/−)-2-((2-chloro-5-cyano-3-(hexahydro-1H-pyrrolo[2,3-c]pyridin-6(2H)-yl)phenyl)amino)-4-(cyclopropylamino)imidazo[2,1-f][1,2,4]triazine-7-carbonitrile]
0.97 nM	CC1(N2CCOCC2)CCN(c2cc(C(F)F)cc(Nc3nc(NC4CC4)c4ncc(C#N)n4n3)c2Cl)CC1 [Example 244, 2-((2-chloro-5-(difluoromethyl)-3-(4-methyl-4-(4-morpholinyl)-1-piperidinyl)phenyl)amino)-4-(cyclopropylamino)imidazo[2,1-f][1,2,4]triazine-7-carbonitrile]
0.58 nM	N#Cc1cnc2c(NC3CC3)nc(Nc3cc(C(F)F)cc(N4CCN(C5CS(=O)(=O)C5)CC4)c3Cl)nn12 [Example 272, 2-((2-chloro-5-(difluoromethyl)-3-(4-(1,1-dioxidothietan-3-yl)piperazin-1-yl)phenyl)amino)-4-(cyclopropylamino)imidazo[2,1-f][1,2,4]triazine-7-carbonitrile]
